Data reported in PMC5218480 (PLoS ONE, 2017).

Tested on: MV-4-11 cells
Experiment: Gene expression microarray analysis (Affymetrix PrimeView) and GSEA
Format: cell-based, human
Parameters: RFU PODN (11730768_x_at) / Fold change /veh PODN (11730768_x_at) / RFU LINC00158 (11744669_a_at) / Fold change /veh LINC00158 (11744669_a_at) / RFU DUSP10 (11751237_a_at) / Fold change /veh DUSP10 (11751237_a_at) / RFU ID3 (11757404_x_at) / Fold change /veh ID3 (11757404_x_at) / RFU PLEKHG5 (11737974_s_at) / Fold change /veh PLEKHG5 (11737974_s_at) / RFU LRRC4B (11730491_at) / Fold change /veh LRRC4B (11730491_at) / RFU GIMAP4 (11747438_a_at) / Fold change /veh GIMAP4 (11747438_a_at) / RFU KRT8 (11758183_x_at) / Fold change /veh KRT8 (11758183_x_at) / RFU CNN1 (11734310_a_at) / Fold change /veh CNN1 (11734310_a_at) / RFU VPS37D (11726825_at) / Fold change /veh VPS37D (11726825_at) / RFU C10orf10 (11716522_x_at) / Fold change /veh C10orf10 (11716522_x_at) / RFU KIR2DL2 /// KIR2DL4 /// KIR2DL5A /// KIR2DL5B /// KIR2DS1 /// KIR2DS2 /// KIR2DS3 /// KIR2DS4 /// KIR3DL3 /// KIR3DL3 /// KIR3DS1 (11738374_at) / Fold change /veh KIR2DL2 /// KIR2DL4 /// KIR2DL5A /// KIR2DL5B /// KIR2DS1 /// KIR2DS2 /// KIR2DS3 /// KIR2DS4 /// KIR3DL3 /// KIR3DL3 /// KIR3DS1 (11738374_at) / RFU C1QL1 (11718748_at) / Fold change /veh C1QL1 (11718748_at) / RFU TMPRSS4 (11747572_a_at) / Fold change /veh TMPRSS4 (11747572_a_at) / RFU HAMP (11756126_x_at) / Fold change /veh HAMP (11756126_x_at) / RFU RNFT2 (11725882_a_at) / Fold change /veh RNFT2 (11725882_a_at) / RFU NR4A2 (11747474_a_at) / Fold change /veh NR4A2 (11747474_a_at) / RFU ABCC12 (11746883_a_at) / Fold change /veh ABCC12 (11746883_a_at) / RFU TMEM136 (11760407_x_at) / Fold change /veh TMEM136 (11760407_x_at) / RFU CLDN22 /// WWC2 (11732394_at) / Fold change /veh CLDN22 /// WWC2 (11732394_at) / RFU HLA-DPB1 (11760878_x_at) / Fold change /veh HLA-DPB1 (11760878_x_at) / RFU SPINT1 (11716480_a_at) / Fold change /veh SPINT1 (11716480_a_at) / RFU GAP43 (11754022_s_at) / Fold change /veh GAP43 (11754022_s_at) / RFU A4GNT (11735810_at) / Fold change /veh A4GNT (11735810_at) / RFU PRB3 (11715151_x_at) / Fold change /veh PRB3 (11715151_x_at) / RFU TUBB4B (11761932_at) / Fold change /veh TUBB4B (11761932_at) / RFU CAPN14 (11732068_a_at) / Fold change /veh CAPN14 (11732068_a_at) / RFU TMCC2 (11721928_a_at) / Fold change /veh TMCC2 (11721928_a_at) / RFU IRGQ (11745062_a_at) / Fold change /veh IRGQ (11745062_a_at) / RFU FAM174B (11720279_a_at) / Fold change /veh FAM174B (11720279_a_at) / RFU TMPRSS4 (11748680_a_at) / Fold change /veh TMPRSS4 (11748680_a_at) / RFU FAM212B (11763350_a_at) / Fold change /veh FAM212B (11763350_a_at) / RFU PLEKHG5 (11743358_a_at) / Fold change /veh PLEKHG5 (11743358_a_at) / RFU ZSCAN30 (11745921_a_at) / Fold change /veh ZSCAN30 (11745921_a_at) / RFU CMKLR1 (11741424_a_at) / Fold change /veh CMKLR1 (11741424_a_at) / RFU LOC101060620 /// MAPK8IP1 (11723275_at) / Fold change /veh LOC101060620 /// MAPK8IP1 (11723275_at) / RFU SPTSSB (11747773_x_at) / Fold change /veh SPTSSB (11747773_x_at) / RFU PRSS12 (11739890_at) / Fold change /veh PRSS12 (11739890_at) / RFU BIN1 (11741810_x_at) / Fold change /veh BIN1 (11741810_x_at) / RFU WNT11 (11732464_a_at) / Fold change /veh WNT11 (11732464_a_at) / RFU C10orf10 (11716521_a_at) / Fold change /veh C10orf10 (11716521_a_at) / RFU C5orf56 (11738089_at) / Fold change /veh C5orf56 (11738089_at) / RFU CYB561 (11721691_x_at) / Fold change /veh CYB561 (11721691_x_at) / RFU ANKRD19P (11752326_a_at) / Fold change /veh ANKRD19P (11752326_a_at) / RFU OR2T12 /// OR2T33 /// OR2T8 (11738714_s_at) / Fold change /veh OR2T12 /// OR2T33 /// OR2T8 (11738714_s_at) / RFU VCAN (11748164_a_at) / Fold change /veh VCAN (11748164_a_at) / RFU JSRP1 (11732532_at) / Fold change /veh JSRP1 (11732532_at) / RFU KRTAP10-11 (11738290_x_at) / Fold change /veh KRTAP10-11 (11738290_x_at) / RFU MYO3A (11730013_a_at) / Fold change /veh MYO3A (11730013_a_at) / RFU EBF3 (11725865_a_at) / Fold change /veh EBF3 (11725865_a_at) / RFU CAMK2N1 (11719241_x_at) / Fold change /veh CAMK2N1 (11719241_x_at) / RFU C5orf56 (11738088_a_at) / Fold change /veh C5orf56 (11738088_a_at) / RFU OLFML3 (11715873_a_at) / Fold change /veh OLFML3 (11715873_a_at) / RFU LOC100653217 /// NTM (11731650_a_at) / Fold change /veh LOC100653217 /// NTM (11731650_a_at) / RFU MAPK11 (11762145_a_at) / Fold change /veh MAPK11 (11762145_a_at) / RFU FIZ1 (11724087_x_at) / Fold change /veh FIZ1 (11724087_x_at) / RFU OASL (11726364_x_at) / Fold change /veh OASL (11726364_x_at) / RFU SOX15 (11748057_x_at) / Fold change /veh SOX15 (11748057_x_at) / RFU CD79A (11719716_a_at) / Fold change /veh CD79A (11719716_a_at) / RFU HIST1H1D (11736915_at) / Fold change /veh HIST1H1D (11736915_at) / RFU CASKIN2 (11723855_a_at) / Fold change /veh CASKIN2 (11723855_a_at) / RFU LOC730098 (11760151_x_at) / Fold change /veh LOC730098 (11760151_x_at) / RFU OR4N2 (11742367_at) / Fold change /veh OR4N2 (11742367_at) / RFU PRRT2 (11749266_a_at) / Fold change /veh PRRT2 (11749266_a_at) / RFU SNX32 (11753110_a_at) / Fold change /veh SNX32 (11753110_a_at) / RFU CDHR5 (11726645_a_at) / Fold change /veh CDHR5 (11726645_a_at) / RFU RCAN1 (11760418_a_at) / Fold change /veh RCAN1 (11760418_a_at) / RFU FAM167A (11723789_a_at) / Fold change /veh FAM167A (11723789_a_at) / RFU FAM26E (11764081_at) / Fold change /veh FAM26E (11764081_at) / RFU ISYNA1 (11749810_s_at) / Fold change /veh ISYNA1 (11749810_s_at) / RFU ACY1 (11761880_at) / Fold change /veh ACY1 (11761880_at) / RFU 11764098_at / Fold change /veh 11764098_at / RFU SAMD14 (11745864_x_at) / Fold change /veh SAMD14 (11745864_x_at) / RFU NPB (11741838_a_at) / Fold change /veh NPB (11741838_a_at) / RFU TMPRSS6 (11731388_a_at) / Fold change /veh TMPRSS6 (11731388_a_at) / RFU KRTAP10-2 (11738614_at) / Fold change /veh KRTAP10-2 (11738614_at) / RFU ARHGAP8 /// PRR5-ARHGAP8 (11727945_x_at) / Fold change /veh ARHGAP8 /// PRR5-ARHGAP8 (11727945_x_at) / RFU KRTAP5-7 /// NADSYN1 (11734609_at) / Fold change /veh KRTAP5-7 /// NADSYN1 (11734609_at) / RFU RASL12 (11751679_a_at) / Fold change /veh RASL12 (11751679_a_at) / RFU CDKN2B (11736163_a_at) / Fold change /veh CDKN2B (11736163_a_at) / RFU PRF1 (11729649_at) / Fold change /veh PRF1 (11729649_at) / RFU, ZNF638 /// ZNF638-IT1 / Fold change vs veh, ZNF638 /// ZNF638-IT1 / RFU, PANK3 / Fold change vs veh, PANK3 / RFU, SH3YL1 / Fold change vs veh, SH3YL1 / RFU, ZEB2 / Fold change vs veh, ZEB2 / RFU, NRIP1 / Fold change vs veh, NRIP1 / RFU, PTTG1IP / Fold change vs veh, PTTG1IP / RFU, CAPN2 / Fold change vs veh, CAPN2 / RFU, MED14 / Fold change vs veh, MED14 / RFU, SNORA58 / Fold change vs veh, SNORA58 / RFU, C1orf63 / Fold change vs veh, C1orf63 / RFU, LRRFIP1 / Fold change vs veh, LRRFIP1 / RFU, NDUFAF7 / Fold change vs veh, NDUFAF7 / RFU, SLC12A2 / Fold change vs veh, SLC12A2 / RFU, IBTK / Fold change vs veh, IBTK / RFU, ESF1 / Fold change vs veh, ESF1 / Fold change vs veh, TMEM50B / RFU, TAOK1 / Fold change vs veh, TAOK1 / RFU, ACBD3 / Fold change vs veh, ACBD3 / RFU, TMA16 / Fold change vs veh, TMA16 / RFU, RWDD3 / Fold change vs veh, RWDD3 / RFU, BCAT1 / Fold change vs veh, BCAT1 / RFU, EDEM3 / Fold change vs veh, EDEM3 / RFU, TMEM33 / Fold change vs veh, TMEM33 / RFU, WDR75 / Fold change vs veh, WDR75 / RFU, AHCTF1 / Fold change vs veh, AHCTF1 / RFU, TFRC / Fold change vs veh, TFRC / RFU, ZDHHC17 / Fold change vs veh, ZDHHC17 / RFU, NOM1 / Fold change vs veh, NOM1 / RFU, ARL8B / Fold change vs veh, ARL8B / RFU, ZBTB11 / Fold change vs veh, ZBTB11 / RFU, TAMM41 / Fold change vs veh, TAMM41 / RFU, KIAA1704 /// LOC100996395 / Fold change vs veh, KIAA1704 /// LOC100996395 / RFU, ING1 / Fold change vs veh, ING1 / RFU, TRMT61B / Fold change vs veh, TRMT61B / RFU, FUBP3 / Fold change vs veh, FUBP3 / RFU, TP53 / Fold change vs veh, TP53 / RFU, TNKS2 / Fold change vs veh, TNKS2 / RFU, ZFP14 / Fold change vs veh, ZFP14 / RFU, ACTR2 / Fold change vs veh, ACTR2 / RFU, PPP3R1 / Fold change vs veh, PPP3R1 / RFU, PIK3R1 / Fold change vs veh, PIK3R1 / RFU, HNRNPA1 / Fold change vs veh, HNRNPA1 / RFU, RNF170 / Fold change vs veh, RNF170 / RFU, ZNF28 / Fold change vs veh, ZNF28 / RFU, RNGTT / Fold change vs veh, RNGTT / RFU, OGT / Fold change vs veh, OGT / RFU, BRD1 / Fold change vs veh, BRD1 / RFU, MARS / Fold change vs veh, MARS / RFU, ZNF655 / Fold change vs veh, ZNF655 / RFU, FAHD1 / Fold change vs veh, FAHD1 / RFU, BDP1 / Fold change vs veh, BDP1 / RFU, LRRCC1 / Fold change vs veh, LRRCC1 / RFU, ARID1A / Fold change vs veh, ARID1A / RFU, ZNF146 / Fold change vs veh, ZNF146 / RFU, ZNF330 / Fold change vs veh, ZNF330 / RFU, GPN3 / Fold change vs veh, GPN3 / RFU, C9orf123 / Fold change vs veh, C9orf123 / RFU, N4BP2L2 / Fold change vs veh, N4BP2L2 / RFU, ARFIP1 / Fold change vs veh, ARFIP1 / RFU, FAM179B / Fold change vs veh, FAM179B / RFU, BCL10 / Fold change vs veh, BCL10 / RFU, UHRF1BP1L / Fold change vs veh, UHRF1BP1L / RFU, BET1 / Fold change vs veh, BET1 / RFU, CNOT2 / Fold change vs veh, CNOT2 / RFU, ZNF268 / Fold change vs veh, ZNF268 / Fold change vs veh, ZNF507 / RFU, DGCR2 / Fold change vs veh, DGCR2 / RFU, WDSUB1 / Fold change vs veh, WDSUB1 / Fold change vs veh, HSP90B1 /// MIR3652 / RFU, ADSS / Fold change vs veh, ADSS / RFU, GK / Fold change vs veh, GK / RFU, ZNF148 / Fold change vs veh, ZNF148 / RFU, TAF9 / Fold change vs veh, TAF9 / RFU, SLC1A5 / Fold change vs veh, SLC1A5 / RFU, SLMO2 / Fold change vs veh, SLMO2 / RFU, ABCC4 / Fold change vs veh, ABCC4 / RFU, LOC101060439 /// RAP1B / Fold change vs veh, LOC101060439 /// RAP1B / RFU, RFX7 / Fold change vs veh, RFX7 / RFU, GTPBP10 / Fold change vs veh, GTPBP10 / RFU, CNEP1R1 / Fold change vs veh, CNEP1R1 / RFU, BIVM-ERCC5 /// ERCC5 / Fold change vs veh, BIVM-ERCC5 /// ERCC5 / RFU, ILF3 / Fold change vs veh, ILF3 / RFU 11762660_at / Fold change /veh 11762660_at / RFU VCAN (11757783_s_at) / Fold change /veh VCAN (11757783_s_at) / RFU DDX43 (11728927_at) / Fold change /veh DDX43 (11728927_at) / RFU KRT8 (11758188_x_at) / Fold change /veh KRT8 (11758188_x_at) / RFU NKD1 (11759106_at) / Fold change /veh NKD1 (11759106_at) / RFU SRD5A1 (11742802_a_at) / Fold change /veh SRD5A1 (11742802_a_at) / RFU TPSAB1 /// TPSB2 (11721975_s_at) / Fold change /veh TPSAB1 /// TPSB2 (11721975_s_at) / RFU GSTM3 (11746129_a_at) / Fold change /veh GSTM3 (11746129_a_at) / RFU IL23R (11737362_x_at) / Fold change /veh IL23R (11737362_x_at) / RFU TMEM51 (11727254_a_at) / Fold change /veh TMEM51 (11727254_a_at) / RFU PIWIL2 (11732686_x_at) / Fold change /veh PIWIL2 (11732686_x_at) / RFU ORM1 (11744905_x_at) / Fold change /veh ORM1 (11744905_x_at) / RFU CCDC152 (11743942_at) / Fold change /veh CCDC152 (11743942_at) / RFU ECM1 (11717891_a_at) / Fold change /veh ECM1 (11717891_a_at) / RFU IL23R (11748794_a_at) / Fold change /veh IL23R (11748794_a_at) / RFU TNFAIP8L3 (11732012_x_at) / Fold change /veh TNFAIP8L3 (11732012_x_at) / RFU MBOAT4 (11741988_at) / Fold change /veh MBOAT4 (11741988_at) / RFU 11764193_at / Fold change /veh 11764193_at / RFU TMEM53 (11763286_at) / Fold change /veh TMEM53 (11763286_at) / RFU MAGEB2 (11727129_at) / Fold change /veh MAGEB2 (11727129_at) / RFU TMEM200A (11744735_a_at) / Fold change /veh TMEM200A (11744735_a_at) / RFU CCDC152 (11751479_a_at) / Fold change /veh CCDC152 (11751479_a_at) / RFU FAM211A (11726209_a_at) / Fold change /veh FAM211A (11726209_a_at) / RFU RGS16 (11746705_a_at) / Fold change /veh RGS16 (11746705_a_at) / RFU VCAN (11755009_s_at) / Fold change /veh VCAN (11755009_s_at) / RFU RHOB (11743442_s_at) / Fold change /veh RHOB (11743442_s_at) / RFU RGS16 (11720943_a_at) / Fold change /veh RGS16 (11720943_a_at) / RFU RGS16 (11720944_at) / Fold change /veh RGS16 (11720944_at) / RFU, VPS4B / Fold change vs veh, VPS4B / RFU, CREB1 / Fold change vs veh, CREB1 / RFU, DNAJC13 / Fold change vs veh, DNAJC13 / RFU, GNAQ / Fold change vs veh, GNAQ / RFU, CDK5R1 / Fold change vs veh, CDK5R1 / RFU, ZRANB3 / Fold change vs veh, ZRANB3 / RFU, CUL4A / Fold change vs veh, CUL4A / RFU, CCNY / Fold change vs veh, CCNY / RFU, UFL1 / Fold change vs veh, UFL1 / RFU, COG3 / Fold change vs veh, COG3 / RFU, DIAPH2 / Fold change vs veh, DIAPH2 / RFU, SKA2 / Fold change vs veh, SKA2 / RFU, AFF3 / Fold change vs veh, AFF3 / RFU, LMF1 / Fold change vs veh, LMF1 / RFU, IPO11 / Fold change vs veh, IPO11 / RFU, DFFB / Fold change vs veh, DFFB / RFU, FOXP1 / Fold change vs veh, FOXP1 / RFU, CARD8 / Fold change vs veh, CARD8 / RFU, STRN3 / Fold change vs veh, STRN3 / RFU, ADK / Fold change vs veh, ADK / RFU, RASSF2 / Fold change vs veh, RASSF2 / RFU, WIPF1 / Fold change vs veh, WIPF1 / RFU, LARP1B / Fold change vs veh, LARP1B / RFU, RASA1 / Fold change vs veh, RASA1 / RFU, RB1 / Fold change vs veh, RB1 / RFU, PPFIA1 / Fold change vs veh, PPFIA1 / RFU, MAT2A / Fold change vs veh, MAT2A / RFU, CCT5 / Fold change vs veh, CCT5 / RFU, WDR92 / Fold change vs veh, WDR92 / RFU, CUX1 / Fold change vs veh, CUX1 / RFU, TTC7A / Fold change vs veh, TTC7A / RFU, TMEM135 / Fold change vs veh, TMEM135 / RFU, DEPTOR / Fold change vs veh, DEPTOR / RFU, CPM / Fold change vs veh, CPM / RFU, DNAJB6 / Fold change vs veh, DNAJB6 / RFU, CACNA2D3 / Fold change vs veh, CACNA2D3 / RFU, DTX4 / Fold change vs veh, DTX4 / RFU, TFCP2 / Fold change vs veh, TFCP2 / RFU, GMCL1 /// GMCL1P1 / Fold change vs veh, GMCL1 /// GMCL1P1 / RFU, AEBP2 / Fold change vs veh, AEBP2 / RFU, SNHG1 /// SNORD22 /// SNORD25 /// SNORD26 /// SNORD27 /// SNORD28 /// SNORD29 /// SNORD31 / Fold change vs veh, SNHG1 /// SNORD22 /// SNORD25 /// SNORD26 /// SNORD27 /// SNORD28 /// SNORD29 /// SNORD31 / Fold change (Aza/veh), C12orf56 (ProbeSet 11735607_a_at) / Fold change (ACY-1035/veh), C12orf56 (ProbeSet 11735607_a_at) / Fold change (Aza/veh), FGFR1OP (ProbeSet 11751329_s_at) / Fold change (ACY-1035/veh), FGFR1OP (ProbeSet 11751329_s_at) / Fold change (Aza/veh), VPS36 (ProbeSet 11739960_a_at) / Fold change (ACY-1035/veh), VPS36 (ProbeSet 11739960_a_at) / RFU SYPL1 (11715823_x_at) / Fold change /veh SYPL1 (11715823_x_at) / RFU IGFBP7 (11715501_s_at) / Fold change /veh IGFBP7 (11715501_s_at) / RFU REEP3 (11722064_at) / Fold change /veh REEP3 (11722064_at) / RFU IGLL1 (11728026_x_at) / Fold change /veh IGLL1 (11728026_x_at): dose or concentration left out as unconfirmed
Conditions: MV-4-11 cells, 48 hours

Structure (SMILES): Nc1ncn([C@@H]2O[C@H](CO)[C@@H](O)[C@H]2O)c(=O)n1 [azacitidine]
- RFU ANKRD19P (11752326_a_at): 6.34 RFU
